Measurements as given in US11040987B2 (TenNor Therapeutics Limited, priority 2019, dated 2021).
Values after ≈ are worked out from the molar mass of the structure shown.

Columns and labels:
[1] = tested on: Acinetobacter baumannii; conditions: including carbapenem-resistant strains; cited from earlier work
[2] = tested on: Pseudomonas aeruginosa; conditions: including carbapenem-resistant strains; cited from earlier work
[3] = target: T1, AmpC_PA (Pseudomonas aeruginosa, UniProt P24735); assay: β-lactamase inhibition, spectrophotometric assay of nitrocefin hydrolysis; format: biochemical, P. aeruginosa
T1 construct: made in house
Excerpt: (§1) Hydrolytic inactivation of the β-lactam antibiotics by β-lactamases is the most widespread drug resistant mechanism and the most challenge clinically among Gram-negative bacterial pathogens. Based on the amino acid sequences, the β-lactamases are grouped into four classes (Ambler classification), of which A, C and D are serine hydrolases and B encompasses metallo-β-lactamases. The IC50 of selected derivatives disclosed herein (identified with reference to example number) plus six reference β-lactam or β-lactamase inhibitors were determined against 7 representative β-lactamases of various classes in a standard spectrophotometric assay of nitrocefin hydrolysis. The assay is performed in 384-well plate. The seven recombinant β-lactamases AmpC_AB (from A. baumannii), AmpC_PA (from P. aeruginosa), KPC-2, NDM-1, IMP-1, VIM-1 and OXA 24/40) are expressed and purified. The reaction buffer for class A, C and D enzymes is 100 mM Na2HPO4—KH2PO4 (pH 7.1) plus 0.005% Tween-20, and for class B enzymes 10 μM ZnSO4 is added. […] The 50 μL of reaction solution composed of 2 pM of β-lactamase, 200 μM of nitrocefin and series of 3-fold dilutions of test or control compounds are added by Cybio SELMA system into 384-plate and incubated in dark at 25° C. for 2 hours. The OD490 is read in MC SpectraMax Plus384 plate reader.

[4] = tested on: A.b TNP 41708; assay: MIC against A. baumannii clinical isolates, alone and in combination with antibiotics; format: cell-based; conditions: for MIC: Acinetobacter baumannii, TNP41708, read-out: MIC A.b TNP 41708
Summary of the method: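 MIC read by broth microdilution following CLSI guidance, with minor changes. Each well received a bacterial inoculum of […].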

[5] = tested on: A.b TNP 41704; assay: as above; format: cell-based; conditions: for MIC: Acinetobacter baumannii, TNP41704, Compounds alone, read-out: MIC A.b TNP 41704
[6] = tested on: P. aeruginosa ATCC 27853; assay: MIC determination, broth microdilution, ESKAPE panel; format: cell-based; conditions: Pseudomonas aeruginosa, ATCC27853; iron-depleted cation-adjusted Mueller-Hinton broth, 2,2-dipyridyl 160 μM; 37° C., 18-20 hours; read-out: MIC P. aeruginosa ATCC 27853
Summary of the method: (§2)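 CLSI broth microdilution, slightly modified; inoculum […]; ATCC ESKAPE reference strains.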

[7] = tested on: S. aureus ATCC 29213; assay: as above; format: cell-based; conditions: Staphylococcus aureus, ATCC29213; iron-depleted cation-adjusted Mueller-Hinton broth, 2,2-dipyridyl 160 μM; 37° C., 18-20 hours; read-out: MIC S. aureus ATCC 29213
Summary of the method: as §2

[8] = tested on: A. baumannii ATCC 19606; assay: as above; format: cell-based; conditions: Acinetobacter baumannii, ATCC19606; iron-depleted cation-adjusted Mueller-Hinton broth, 2,2-dipyridyl 160 μM; 37° C., 18-20 hours; read-out: MIC A. baumannii ATCC 19606
Summary of the method: as §2

[9] = tested on: K. pneumoniae ATCC 43816; assay: as above; format: cell-based; conditions: Klebsiella pneumoniae, ATCC43816; iron-depleted cation-adjusted Mueller-Hinton broth, 2,2-dipyridyl 160 μM; 37° C., 18-20 hours; read-out: MIC K. pneumoniae ATCC 43816
Summary of the method: as §2

[10] = tested on: E. faecium ATCC 700221; assay: as above; format: cell-based; conditions: Enterococcus faecium, ATCC700221; iron-depleted cation-adjusted Mueller-Hinton broth, 2,2-dipyridyl 160 μM; 37° C., 18-20 hours; read-out: MIC E. faecium ATCC 700221
Summary of the method: as §2

[11] = tested on: Escherichia coli ATCC 25922; assay: as above; format: cell-based; conditions: ATCC25922, iron-depleted cation-adjusted Mueller-Hinton broth, 2,2-dipyridyl 160 μM, 37° C., 18-20 hours, read-out: MIC E. coli ATCC 25922
Summary of the method: as §2

[12] = target: T2, VIM-1 (Pseudomonas aeruginosa, UniProt A0A0F7KYQ8); assay: β-lactamase inhibition, spectrophotometric assay of nitrocefin hydrolysis; format: biochemical; conditions: class B β-lactamase, 10 μM ZnSO4; 200 μM nitrocefin, 25° C., 2 hours; read-out: IC50 VIM-1
T2 construct: made in house
Excerpt: as §1

[13] = target: T3, IMP-1 (Serratia marcescens, UniProt P52699); assay: as above; format: biochemical; conditions: class B β-lactamase, 10 μM ZnSO4; 200 μM nitrocefin, 25° C., 2 hours; read-out: IC50 IMP-1
T3 construct: made in house
Excerpt: as §1

[14] = target: T4, KPC-2 (Klebsiella pneumoniae, UniProt Q9F663); assay: as above; format: biochemical; conditions: class A β-lactamase; 200 μM nitrocefin, 25° C., 2 hours; read-out: IC50 KPC-2
T4 construct: made in house
Excerpt: as §1

[15] = target: T5, OXA 24/40 (Acinetobacter baumannii, UniProt Q8RLA6); assay: as above; format: biochemical
T5 construct: made in house
Excerpt: as §1

[16] = target: AmpC_AB (Acinetobacter baumannii, UniProt Q6DRA1); assay: as above; format: biochemical; conditions: Class C β-lactamase; 200 μM nitrocefin, 25° C., 2 hours; read-out: IC50 AmpC_AB
Excerpt: as §1

[17] = target: T6, NDM-1 (Klebsiella pneumoniae, UniProt C7C422); assay: as above; format: biochemical; conditions: class B β-lactamase, 10 μM ZnSO4; 200 μM nitrocefin, 25° C., 2 hours; read-out: IC50 NDM-1
T6 construct: made in house
Excerpt: as §1

[18] = tested on: A.b TNP 41709; assay: MIC against A. baumannii clinical isolates, alone and in combination with antibiotics; format: cell-based; conditions: for MIC: Acinetobacter baumannii, TNP41709, Compounds alone, read-out: MIC A.b TNP 41709

T4 sequence (Q9F663 25-293, looked up, species assumed): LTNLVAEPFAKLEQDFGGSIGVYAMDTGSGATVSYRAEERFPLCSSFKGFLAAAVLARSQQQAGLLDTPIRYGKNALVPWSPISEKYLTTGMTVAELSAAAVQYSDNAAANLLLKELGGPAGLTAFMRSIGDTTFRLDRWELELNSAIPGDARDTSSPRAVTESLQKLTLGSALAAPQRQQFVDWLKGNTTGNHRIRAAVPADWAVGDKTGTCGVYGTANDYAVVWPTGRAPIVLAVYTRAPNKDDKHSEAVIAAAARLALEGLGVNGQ
T1 sequence (P24735 27-397): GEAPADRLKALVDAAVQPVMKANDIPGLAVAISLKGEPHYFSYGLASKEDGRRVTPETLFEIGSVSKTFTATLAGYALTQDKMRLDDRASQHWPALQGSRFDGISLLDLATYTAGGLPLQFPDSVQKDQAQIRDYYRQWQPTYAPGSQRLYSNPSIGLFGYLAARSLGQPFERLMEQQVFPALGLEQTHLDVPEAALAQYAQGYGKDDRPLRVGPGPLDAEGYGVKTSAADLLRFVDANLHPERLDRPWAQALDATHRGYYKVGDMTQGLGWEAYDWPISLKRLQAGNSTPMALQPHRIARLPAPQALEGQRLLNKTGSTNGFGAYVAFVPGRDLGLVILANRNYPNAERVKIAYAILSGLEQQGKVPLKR
T6 sequence (C7C422 29-270, looked up, species assumed): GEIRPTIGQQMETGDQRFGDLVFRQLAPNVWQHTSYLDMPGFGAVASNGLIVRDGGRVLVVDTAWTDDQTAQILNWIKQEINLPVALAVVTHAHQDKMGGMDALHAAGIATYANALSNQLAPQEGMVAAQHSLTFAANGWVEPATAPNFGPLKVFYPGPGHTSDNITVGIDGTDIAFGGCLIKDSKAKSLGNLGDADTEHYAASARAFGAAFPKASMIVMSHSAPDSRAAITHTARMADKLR
T3 sequence (P52699 19-246, looked up, species assumed): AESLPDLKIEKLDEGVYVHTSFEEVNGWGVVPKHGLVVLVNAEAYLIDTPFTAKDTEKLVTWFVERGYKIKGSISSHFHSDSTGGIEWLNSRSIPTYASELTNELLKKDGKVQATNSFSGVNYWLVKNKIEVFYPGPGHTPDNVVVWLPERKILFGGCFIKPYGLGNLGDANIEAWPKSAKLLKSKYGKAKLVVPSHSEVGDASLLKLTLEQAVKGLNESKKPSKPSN
T5 sequence (Q8RLA6 22-275): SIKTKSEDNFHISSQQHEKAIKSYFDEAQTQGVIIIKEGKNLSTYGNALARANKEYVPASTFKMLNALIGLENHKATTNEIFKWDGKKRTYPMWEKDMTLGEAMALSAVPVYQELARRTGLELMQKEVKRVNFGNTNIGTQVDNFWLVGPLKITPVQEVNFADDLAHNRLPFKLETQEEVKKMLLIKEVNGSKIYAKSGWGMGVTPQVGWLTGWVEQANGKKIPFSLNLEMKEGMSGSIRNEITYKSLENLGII

Structure (SMILES): CC(C)(O/N=C(\C(=O)N[C@@H]1C(=O)N2C(C(=O)[O-])=C(C[N+]3(CCNC(=O)c4ccc(O)c(O)c4Cl)CCCC3)CS[C@H]12)c1csc(N)n1)C(=O)O [Cefiderocol]
- antibacterial activity against Acinetobacter baumannii [1]: potent antibacterial activity
- antibacterial activity against Pseudomonas aeruginosa [2]: potent antibacterial activity

Structure (SMILES): C[C@]1(/C=N/NC(=O)CNC(=O)c2ccc(O)c(O)c2)[C@H](C(=O)O)N2C(=O)C[C@H]2S1(=O)=O [Example 64, (2S,3R,5R)-3-((E)-(2-(2-(3,4-dihydroxybenzamido)acetyl)hydrazono)methyl)-3-methyl-7-oxo-4-thia-1-azabicyclo[3.2.0]heptane-2-carboxylic acid 4,4-dioxide]
- IC50 [3]: 0.641 µM
- MIC [4]: > 128 µg/mL
- MIC A.b TNP 41708 ([4]; Compounds + meropenem (1:1)): 4 µg/mL
- MIC A.b TNP 41708 ([4]; Compounds + sulbactam (1:1)): 8 µg/mL
- MIC [5]: > 128 µg/mL
- MIC A.b TNP 41704 ([5]; Compounds + meropenem (1:1)): 2 µg/mL
- MIC A.b TNP 41704 ([5]; Compounds + sulbactam (1:1)): 4 µg/mL
- MIC [6]: > 128 µg/mL
- MIC [7]: 64 µg/mL (≈ 141 µM)
- MIC [8]: 8 µg/mL (≈ 17.6 µM)
- MIC [9]: 128 µg/mL (≈ 282 µM)
- MIC [10]: > 128 µg/mL
- MIC [11]: > 128 µg/mL
- IC50 [12]: > 200 µM
- IC50 [13]: > 200 µM
- IC50 [14]: > 200 µM
- IC50 [15]: 5.77 µM
- IC50 [16]: 0.474 µM
- IC50 [17]: > 200 µM
- MIC [18]: > 128 µg/mL
- MIC A.b TNP 41709 ([18]; Compounds + meropenem (1:1)): 2 µg/mL
- MIC A.b TNP 41709 ([18]; Compounds + sulbactam (1:1)): 4 µg/mL

Structure (SMILES): C[C@]1(/C=N/NC(=O)c2ccc(O)c(O)c2)[C@H](C(=O)O)N2C(=O)C[C@H]2S1(=O)=O [Example 5, (2S,3R,5R)-3-((E)-(2-(3,4-dihydroxybenzoyl)hydrazono)methyl)-3-methyl-7-oxo-4-thia-1-azabicyclo[3.2.0]heptane-2-carboxylic acid 4,4-dioxide]
- IC50 [3]: 1.72 µM
- MIC [4]: > 128 µg/mL
- MIC A.b TNP 41708 ([4]; Compounds + meropenem (1:1)): 4 µg/mL
- MIC A.b TNP 41708 ([4]; Compounds + sulbactam (1:1)): 8 µg/mL
- MIC [5]: > 128 µg/mL
- MIC A.b TNP 41704 ([5]; Compounds + meropenem (1:1)): 4 µg/mL
- MIC A.b TNP 41704 ([5]; Compounds + sulbactam (1:1)): 4 µg/mL
- MIC [6]: > 128 µg/mL
- MIC [7]: 128 µg/mL (≈ 322 µM)
- MIC [8]: 4 µg/mL (≈ 10.1 µM)
- MIC [9]: 32 µg/mL (≈ 80.5 µM)
- MIC [10]: > 128 µg/mL
- MIC [11]: 64 µg/mL (≈ 161 µM)
- IC50 [12]: > 200 µM
- IC50 [13]: > 200 µM
- IC50 [14]: > 200 µM
- IC50 [15]: 11.6 µM
- IC50 [16]: 1.04 µM
- IC50 [17]: > 200 µM
- MIC [18]: 32 µg/mL
- MIC A.b TNP 41709 ([18]; Compounds + meropenem (1:1)): 2 µg/mL
- MIC A.b TNP 41709 ([18]; Compounds + sulbactam (1:1)): 4 µg/mL

Structure (SMILES): C[C@]1(/C=N/NC(=O)C2CCN(C(=O)c3ccc(O)c(O)c3Cl)C2)[C@H](C(=O)O)N2C(=O)C[C@H]2S1(=O)=O (stereo partly drawn) [Example 38, (2S,3R,5R)-3-((E)-(2-(1-(2-chloro-3,4-dihydroxybenzoyl)pyrrolidine-3-carbonyl)hydrazono)methyl)-3-methyl-7-oxo-4-thia-1-azabicyclo[3.2.0]heptane-2-carboxylic acid 4,4-dioxide]
- IC50 [3]: 2.38 µM
- MIC [4]: > 128 µg/mL
- MIC A.b TNP 41708 ([4]; Compounds + meropenem (1:1)): 4 µg/mL
- MIC A.b TNP 41708 ([4]; Compounds + sulbactam (1:1)): 8 µg/mL
- MIC [5]: > 128 µg/mL
- MIC A.b TNP 41704 ([5]; Compounds + meropenem (1:1)): 4 µg/mL
- MIC A.b TNP 41704 ([5]; Compounds + sulbactam (1:1)): 4 µg/mL
- MIC [6]: > 128 µg/mL
- MIC [7]: 128 µg/mL (≈ 242 µM)
- MIC [8]: 8 µg/mL (≈ 15.1 µM)
- MIC [9]: 32 µg/mL (≈ 60.5 µM)
- MIC [10]: > 128 µg/mL
- MIC [11]: > 128 µg/mL
- IC50 [12]: > 200 µM
- IC50 [13]: > 200 µM
- IC50 [14]: > 200 µM
- IC50 [15]: 5.93 µM
- IC50 [16]: 7.62 µM
- IC50 [17]: > 200 µM
- MIC [18]: > 128 µg/mL
- MIC A.b TNP 41709 ([18]; Compounds + meropenem (1:1)): 2 µg/mL
- MIC A.b TNP 41709 ([18]; Compounds + sulbactam (1:1)): 8 µg/mL
